Data from article PMC12073438, “Stereoselectivity of In Vivo Processes and Bioactivity of Farrerol Enantiomers” (Molecules, 2025).
Where two headings read alike, the source gives them in different places.

Key:
[1] = Stereoselective pharmacokinetics in rat kidney tissue; assay type: in vivo, Sprague–Dawley rats; settings: rat kidney, oral 40 mg/kg farrerol racemate; for Cmax / AUC(0–t) / AUC(0–∞): 40 mg/kg
Experimental: Forty-two rats were divided randomly into seven groups (6 rats per time point at 0.5, 1, 2, 4, 8, 12, and 24 h) and were orally administered farrerol racemate at a dose of 40 mg/kg. Rats from each group were euthanized, and kidney and liver tissues were subsequently obtained. After washing three times using 0.9% sodium chloride solution, the attached blood and fat tissues were removed. Afterward, 0.5 g of the precisely weighed liver and kidney tissues were added to 1 mL 0.9% sodium chloride solution and homogenized in an ice bath. Subsequently, 150 µL of supernatant was transferred into a 2.0 mL EP tube for pre-treatment, in the same way as the pretreatment of plasma samples (see Section 3.4.1).
Stereoselective chromatographic analysis of farrerol enantiomers was conducted utilizing an ACQUITY UPLC I-Class UPLC system (Waters, Milford, MA, USA), which is equipped with a quaternary pump and an autosampler. The chiral separation was carried out employing a Chiralpak OJ-RH column (250 mm × 4.6 mm, 5 μm), which was obtained from Daicel Chemical Industries (Shanghai, China). The mobile phase consisted of ACN-H2O (60:40, v/v), and the constant flow rate was 0.5 mL/min. The column temperature was set at 25 °C, and the injection volume was 10 μL.
Mass detection was conducted using a triple quadrupole mass spectrometer (Waters Co., USA) equipped with an electrospray ionization (ESI) source. The detection of enantiomers and internal standards (IS) was carried out in multiple reaction monitoring (MRM) mode utilizing negative ionization. The m/z 299→179 for enantiomers and m/z 267→252 for IS were selected as detecting ions for quantitation. The collision energies (CE) were established at 22 eV and 20 eV, respectively. The primary mass spectrometry (MS) parameters were configured as follows: capillary voltage was set to 3.5 kV, ion source temperature was maintained at 150 °C, desolvation gas flow rate was 800 L/h, and the cone voltage (CV) was adjusted to 1.3 V.
Pharmacokinetic analysis was conducted utilizing the Drug and Statistics (DAS) 2.0 software provided by the Chinese Pharmacological Society. To assess the differences in pharmacokinetic parameters, the IC50 values of the evaluated CYP enzymes and the permeability coefficients between the two farrerol enantiomers, paired sample t-tests and independent sample t-tests were performed. Statistical significance was defined as * p < 0.05 and ** p < 0.01. All results are presented as mean values ± standard deviation (SD).

CYP2E1 = CYP2E1 (Homo sapiens, UniProt P05181); assay: CYP inhibition in liver microsomes (chlorzoxazone); assay type: in vitro ADME; settings: CYP 2E1, marker substrate chlorzoxazone
Chain of CYP2E1 (P05181 whole entry): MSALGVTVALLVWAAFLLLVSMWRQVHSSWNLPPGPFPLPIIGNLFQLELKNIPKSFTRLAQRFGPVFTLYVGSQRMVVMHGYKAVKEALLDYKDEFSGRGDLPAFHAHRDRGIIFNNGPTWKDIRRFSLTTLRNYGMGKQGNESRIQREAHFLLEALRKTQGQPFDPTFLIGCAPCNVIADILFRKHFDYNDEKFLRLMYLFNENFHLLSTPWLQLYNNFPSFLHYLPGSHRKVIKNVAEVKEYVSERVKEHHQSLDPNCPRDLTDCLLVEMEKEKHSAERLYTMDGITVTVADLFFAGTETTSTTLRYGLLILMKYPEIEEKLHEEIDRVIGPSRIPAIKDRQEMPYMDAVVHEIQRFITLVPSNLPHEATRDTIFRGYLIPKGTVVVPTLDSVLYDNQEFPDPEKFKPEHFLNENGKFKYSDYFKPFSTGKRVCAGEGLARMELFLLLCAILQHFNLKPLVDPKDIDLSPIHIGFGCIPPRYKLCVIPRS
Experimental: A liver microsome working solution (20 mg/mL) contained potassium phosphate buffer (0.1 M, pH 7.4), hepatic microsomes and marker substrate solution, which phenacetin, diclofenic acid, S-mephenytoinwer, dextromethorphan, midazolam, coumarin and chlorzoxazone used as substrates for […], CYP2C9, CYP2C19, CYP2D6, CYP3A4/5, CYP2A6 and CYP2E1, respectively. In brief, 238.5 µL of liver microsome working solution was placed in a 1 mL EP tube. […] The reaction was started by injecting NADPH (1 mM), and the resulting mixture was incubated at 37 °C for 10 min. After centrifuging at 4000 rpm for 15 min, the supernatant was transferred and analyzed using LC-MS/MS to detect the corresponding metabolites. Each incubation was conducted in triplicate (n = 3).
An API 4000 LC/tandem mass spectrometry was used to analyze the concentration of metabolites of various chemical agents using a validated mode. An Atlantis T3 column (2.1 mm × 50 mm, 5 μm) was utilized, employing mobile phases consisting of a 0.1% formic acid solution (A) and a 0.1% acetonitrile formate solution (B). […] MRM was utilized to quantify each metabolite, detecting the following transitions: m/z 152.1/110 for acetaminophen, 312.1/230.0 for 4′-Hydroxydiclofenac, 235.0/150.0 for 4′-hydroxymephentoin, 258.2/199.1 for Dextrorphan, 342.1/203.0 for 1′-hydroxymidazolam, 161.1/133.1 for hydroxycoumarin, and 184.0/120.0 for 6-hydroxyclozoxadone.

[2] = Rat single-pass intestinal perfusion; assay type: in vivo, Sprague–Dawley rats
Experimental: The absorption rate constant (Ka) and permeability coefficient (Peff) were calculated using the following equation: […] The single-pass intestinal perfusion studies in rats were conducted following previously established methodologies. […] Before the surgical procedure, animals were fasted overnight with water ad libitum. Rats were anesthetized via intraperitoneal administration of 20% urethane at a dosage of 6 mL/kg and subsequently positioned on a heating pad. Their normal body temperature (37.0 ± 0.5 °C) was sustained using an infrared lamp. A midline incision was made to open the abdomen, allowing for the exposure of 35–45 cm of the small intestine, along with a 10 cm segment […]. This segment was cannulated with Teflon tubing (0.42 cm in diameter) at both the proximal and distal ends, which were then secured with silk sutures. This segment was gently flushed with warmed normal saline to remove intestinal contents. Then, farrerol racemate maintained at 37 °C was perfused through the lumen of the small intestine at a flow rate of 0.2 mL/min. After a 30 min equilibration period to reach steady-state outlet concentrations, the perfusate samples were collected every 15 min for 120 min in micro-centrifuge tubes. The length of the small intestinal segment was measured following the last collection. All collected samples were stored at −20 °C. 500 μL of collected intestinal perfusion samples were placed in an EP tube and then dried with nitrogen at 37 °C. The residue was redissolved and precipitated with 200 μL of methanol by vortex-mixing for 5 min. Following centrifugation at 13,000 rpm for 10 min, the supernatant samples were analyzed using the previously validated RP-HPLC-DAD method. The chiral HPLC technique employed for the analysis of farreol enantiomers in intestinal perfusate aligned with the chromatographic procedure outlined in Section 3.4.3. This method underwent validation for parameters including linearity, range, extraction recovery, specificity, precision, and accuracy. […] The extraction recoveries of farrerol in intestinal perfusate at three different concentration levels ranged from 90.57% to 95.57%.

[3] = Colon, farrerol racemate 66.00 μg·mL^−1
[4] = Colon, farrerol racemate 132.00 μg·mL^−1
[5] = Colon, farrerol racemate 132.00 μg·mL^−1 + verapamil
[6] = Colon, farrerol racemate 180.00 μg·mL^−1
[7] = Duodenum, farrerol racemate 66.00 μg·mL^−1
[8] = Duodenum, farrerol racemate 132.00 μg·mL^−1
[9] = Duodenum, farrerol racemate 132.00 μg·mL^−1 + verapamil
[10] = Duodenum, farrerol racemate 180.00 μg·mL^−1
[11] = Ileum, farrerol racemate 66.00 μg·mL^−1
[12] = Ileum, farrerol racemate 132.00 μg·mL^−1
[13] = Ileum, farrerol racemate 132.00 μg·mL^−1 + verapamil
[14] = Ileum, farrerol racemate 180.00 μg·mL^−1
[15] = Jejunum, farrerol racemate 66.00 μg·mL^−1
[16] = Jejunum, farrerol racemate 132.00 μg·mL^−1
[17] = Jejunum, farrerol racemate 132.00 μg·mL^−1 + verapamil
[18] = Jejunum, farrerol racemate 180.00 μg·mL^−1

| SMILES | AUC(0–t) [1] | AUC(0–∞) [1] | IC50 (CYP2E1) [µM] | Peff [2, 3] | Peff [2, 4] | Peff [2, 5] | Peff [2, 6] | Peff [2, 7] | Peff [2, 8] | Peff [2, 9] | Peff [2, 10] | Peff [2, 11] | Peff [2, 12] | Peff [2, 13] | Peff [2, 14] | Peff [2, 15] | Peff [2, 16] | Peff [2, 17] | Peff [2, 18] | other results |
| --- | --- | --- | --- | --- | --- | --- | --- | --- | --- | --- | --- | --- | --- | --- | --- | --- | --- | --- | --- | --- |
| Cc1c(O)c(C)c2c(c1O)C(=O)CC(c1ccc(O)cc1)O2 (single isomer, unassigned; (+)) [(+)-farrerol, 2,3-dihydro-5,7-dihydroxy-2-(4-hydroxyphenyl)-6,8-dimethyl-4-benzopyrone] | 23.93 ± 2.11 µg·h/g | 25.70 ± 2.09 µg·h/g | > 50 | 1.09 ± 0.37 ×10^−1 cm·min^−1 | 0.93 ± 0.09 ×10^−1 cm·min^−1 | 1.41 ± 0.23 ×10^−1 cm·min^−1 | 1.04 ± 0.12 ×10^−1 cm·min^−1 | 1.32 ± 0.03 ×10^−1 cm·min^−1 | 1.16 ± 0.11 ×10^−1 cm·min^−1 | 1.42 ± 0.17 ×10^−1 cm·min^−1 | 1.30 ± 0.14 ×10^−1 cm·min^−1 | 1.12 ± 0.22 ×10^−1 cm·min^−1 | 0.87 ± 0.08 ×10^−1 cm·min^−1 | 0.77 ± 0.11 ×10^−1 cm·min^−1 | 0.79 ± 0.04 ×10^−1 cm·min^−1 | 1.16 ± 0.23 ×10^−1 cm·min^−1 | 0.73 ± 0.03 ×10^−1 cm·min^−1 | 1.12 ± 0.10 ×10^−1 cm·min^−1 | 1.03 ± 0.06 ×10^−1 cm·min^−1 | Cmax ([1]; Sprague-Dawley, rat, kidney, po, read-out: Cmax): 3020 ± 350 ng/g; Tmax ([1]; Sprague-Dawley, read-out: Tmax): 1 h |
| Cc1c(O)c(C)c2c(c1O)C(=O)CC(c1ccc(O)cc1)O2 (single isomer, unassigned; (-)) [(−)-farrerol, 2,3-dihydro-5,7-dihydroxy-2-(4-hydroxyphenyl)-6,8-dimethyl-4-benzopyrone] | 28.89 ± 2.53 * µg/g*h | 30.31 ± 2.47 * µg/g*h | > 50 | 1.12 ± 0.41 ×10^−1 cm·min^−1 | 0.95 ± 0.10 ×10^−1 cm·min^−1 | 1.42 ± 0.23 ×10^−1 cm·min^−1 | 1.12 ± 0.17 ×10^−1 cm·min^−1 | 1.33 ± 0.03 ×10^−1 cm·min^−1 | 1.17 ± 0.10 ×10^−1 cm·min^−1 | 1.43 ± 0.17 ×10^−1 cm·min^−1 | 1.33 ± 0.11 ×10^−1 cm·min^−1 | 1.14 ± 0.22 ×10^−1 cm·min^−1 | 0.89 ± 0.10 ×10^−1 cm·min^−1 | 0.77 ± 0.11 ×10^−1 cm·min^−1 | 0.78 ± 0.07 ×10^−1 cm·min^−1 | 1.17 ± 0.24 ×10^−1 cm·min^−1 | 0.74 ± 0.05 ×10^−1 cm·min^−1 | 1.12 ± 0.10 ×10^−1 cm·min^−1 | 1.07 ± 0.10 ×10^−1 cm·min^−1 | AUC0–24 of (−)-farrerol relative to (+)-farrerol [1]: 1.20 times; Tmax [1]: 1.00 h; Cmax [1]: 4.18 ± 0.48 * µg/g |
